# Patent publication US5817668A, “S-heteroatom containing alkyl substituted-3-oxo-pyrido[1,2-A]benzimidozole-4-carboxamide derivatives useful in treating central nervous system disorders” (Ortho Pharmaceutical Corporation, priority 1997, dated 1998)
# Read-outs that look alike come from different tables or passages of the source.
# What was measured:
# [1] = target: benzodiazepine site of the GABA-A receptor; experiment: Benzodiazepine receptor binding: inhibition of 3H-flunitrazepam binding to prepared receptor membranes; conditions: read-out: GABAA Receptor Binding IC50; 3H-flunitrazepam ca. 3 nM, 10-20 min, 25 °C; >10,000 = not active
# [2] = test system: metrazol-induced convulsions in male CD1 mice; experiment: Suppression of metrazol-induced clonic convulsions in adult male mice; assay type: in vivo, mouse (male CD1); conditions: Mus musculus, 0.5 h, >30 = active dose not determined
# Procedure: […] Water was not withheld except during the period of observations. […] Metrazol was dissolved in 0.9% sodium chloride solution, and its dose volume was 10 ml/kg. Animals were housed individually for observation of clonic convulsions, tonic convulsions and death for a period of 30 min. […] The biological assay was considered to be valid if the effects of a known anticonvulsant (positive control) were detected, within the same experiment. Activity was reported as percent reduction of clonic convulsions from the vehicle group.
# [3] = test system: behavior suppressed by punishment (conflict) in male rats; experiment: Suppression of anxiety in adult male rat (punished-licking conflict test, Vogel); assay type: in vivo; conditions: minimum effective dose, >10 = active dose not yet determined; for minimal effective dose: Rattus norvegicus
# Procedure: Male rats were deprived of water for 48 hours and were deprived of food for 24 hours prior to testing. After the first 24 hours of water deprivation, they were placed in the conflict chamber for a training period; wherein, they were allowed 200 unpunished licks from a bottle containing tap water. The experiment was run the next day. At the expected time of peak activity, the animals were placed in the chamber and allowed access to tap water. […] Their first lick initiates a 3-min test session. Subsequently,every 20th lick was punished by a 0.2-s shock delivered via the stainless-steel drinking-tube.
# The Wilcoxon rank-sum test (Mann-Whitney U-test) was used to test for an increase (p<0.05, 1-tailed) in the median number of shocks in drug-treatedgroups, compared to a concurrently run vehicle-treated group. The biological assay is considered to be valid if the effects of a known anxiolytic (positive control) are detected, within the same experiment.
# [4] = ip, ip, read-out: Mouse Metrazol ED50, ip
# [5] = po, po, read-out: Mouse Metrazol ED50, po
# [6] = po, read-out: Rat Conflict MED, po
# [7] = ip, read-out: Rat Conflict MED, ip
Compound,IC50 [1],"ED50 [2, 4]","ED50 [2, 5]","minimal effective dose [3, 6]","minimal effective dose [3, 7]","Rat Conflict MED, po ([3]; po)"
O=C1CCN2C(=C1C(=O)Nc1ccccc1F)N(CCNC(=O)c1ccccc1)c1cc(F)ccc12 [Compound 46],6.1 nM,,,,,
C#CCN1C2=C(C(=O)Nc3ccccc3F)C(=O)CCN2c2ccc(F)cc21 [Compound 85],0.072 nM,0.006 mg/kg,1 mg/kg,1 mg/kg,< 10 mg/kg,
"CC(=O)OCCN1C2=C(C(=O)Nc3ccccc3F)C(=O)CCN2c2ccc(F)cc21 [Compound 119, 7-Fluoro-1,2-dihydro-5-(2-acetoxyethyl)-3-oxo-N-(2-fluorophenyl)pyrido[1,2-a]benzimidazole-4-carboxamide]",0.25 nM,,,,,
COCCN1C2=C(C(=O)Nc3nccs3)C(=O)CCN2c2ccc(F)cc21 [Compound 140],,,,,,> 10 mg/kg
COCCN1C2=C(C(=O)Nc3nccs3)C(=O)CCN2c2ccc(F)cc21 [Compound 155],,,,,,3 mg/kg
CCOCCN1C2=C(C(=O)Nc3ccccc3F)C(=O)CCN2c2ccc(F)cc21 [Compound 160],0.48 nM,< 1 mg/kg,0.3 mg/kg,1 mg/kg,< 10 mg/kg,
"C[S+]([O-])CCN1C2=C(C(=O)Nc3ccccc3F)C(=O)CCN2c2ccc(F)cc21 (centres unmarked) [Compound 183, 7-Fluoro-1,2-dihydro-5-[2-(methylsulfoxy)ethyl]-3-oxo-N-(2-fluorophenyl)pyrido[1,2-a]benzimidazole-4-carboxamide]",6.19 nM,,,,,

# Second part, led by results:
IC50 [1],Compound,"ED50 [2, 4]","ED50 [2, 5]","minimal effective dose [3, 6]","minimal effective dose [3, 7]","Rat Conflict MED, po ([3]; po)"
8.55 nM,COc1ccc(NC(=O)C2=C3N(CC#N)c4cc(F)ccc4N3CCC2=O)cc1 [Compound 82],< 1 mg/kg,> 30 mg/kg,> 10 mg/kg,,
26.3 nM,CN1CCCC(N2C3=C(C(=O)Nc4c(F)cccc4F)C(=O)CCN3c3ccc(F)cc32)C1 (centres unmarked) [Compound 86],> 10 mg/kg,> 30 mg/kg,> 10 mg/kg,10 mg/kg,
126 nM,CCOCN1C2=C(C(=O)Nc3ccccc3F)C(=O)CCN2c2c1ccc(F)c2F [Compound 128],≥ 1 mg/kg,> 30 mg/kg,> 10 mg/kg,,
16 nM,"O=C1CCN2C(=C1C(=O)Nc1ccccc1F)N(CC(O)CO)c1cc(F)ccc12 (centres unmarked) [Compound 162, 7-Fluoro-1,2-dihydro-5-[2,3-dihydroxypropyl]-3-oxo-N-(2-fluorophenyl)pyrido[1,2-a]benzimidazole-4-carboxamide]",,,,,
